The test system of one series is newborn rhesus monkeys. Description: Hemolytic jaundice model, newborn rhesus monkeys treated with heat-damaged erythrocytes. In kind it is in vivo, rhesus monkey. The source says:
However, ZnPP has been troublesome to maintain in solution and is not orally absorbed, requiring parenteral administration.

In a further series the test system is 3-day-old mouse pups. Description: Effect of light exposure on metalloporphyrin-treated newborn mice (chemical toxicity and phototoxicity). To be noted: for chemical toxicity / phototoxicity, summary: 3.75 to 30.0 μmol/kg BW IP; for LD50 (50% lethal dose), exposed to light: fluorescent light (2 cool white, 1 blue tube) 3 hours. Here is the method: FIG. 2 includes three panels ((A), (B), and (C)), showing the experimental setup for phototoxicity studies. 3-day-old pups (magnified in panel (A)) were given vehicle or Mp IP at doses ranging from 3.75 to 30 μmol/kg body weight (BW) and then exposed for 3 hours to fluorescent light consisting of 2 cool white and 1 blue tubes (as shown in panel (B)) emitting an irradiance of 35.0±1.0 μW/cm^2/nm as measured by a BiliBlanket II Meter (as depicted in panel (C)).
Effect of light exposure on metalloporphyrin-treated newborn mice. […] Pups were either kept in the dark (controls) or exposed to fluorescent light composed of two cool white tubes (F20T12cW) and one blue (TL20W/52) tube for 3 hours (FIG. 2).

In the next series the test system is heme oxygenase (HO). Description: HO activity inhibition in ZnBG-treated 3-day-old pups (FIG. 3). In kind it is in vivo, mouse.
Setting [1] is: after exposure to fluorescent light.

For the compound `C=CC1=C(C)c2cc3[n-]c(cc4nc(cc5[n-]c(cc1n2)c(C)c5C=C)C(C)=C4CCC(=O)O)c(CCC(=O)O)c3C.[Zn+2]` [ZnPP, Zinc protoporphyrin], the “tissue targeting of HO inhibition” value in the series on newborn rhesus monkeys (40 μmol/kg BW SC) was “targeted to the liver and spleen, without affecting the kidney or brain”. In the series on newborn rhesus monkeys (40 μmol/kg BW subcutaneously (SC)), the “time to reduce carboxyhemoglobin and total bilirubin levels to baseline levels” value was no more than 24 h.
Regarding chromium mesoporphyrin [CrMP], in the series on 3-day-old mouse pups, the “chemical toxicity / phototoxicity, summary” value is “has a chemical toxicity, but no phototoxicity”. The “LD50 (50% lethal dose), exposed to light” value in the series with 3-day-old mouse pups (IP, 3-day-old mouse pups) stood at 23.0 µmol/kg. The “LD50 (50% lethal dose), kept in the dark” value in the series with 3-day-old mouse pups (IP, 3-day-old mouse pups, kept in the dark) turned out to be 21.5 µmol/kg.
In the case of zinc bis glycol porphyrin [ZnBG], in the series with 3-day-old mouse pups (30 μmol/kg BW, blue light-emitting diode (LED) light), the “lethality under blue LED light” value is reported as “no lethality was observed”. For the same compound, the “chemical toxicity, kept in the dark” value in the series with 3-day-old mouse pups (30 μmol/kg, kept in the dark) is given as “did not show any chemical toxicity”. Moreover, the “chemical toxicity / phototoxicity, summary” value in the series with 3-day-old mouse pups is given as “has no chemical toxicity, but a phototoxicity that is dependent on the light source”. In addition, the “doses at which gross histologic skin changes developed” value in the series on 3-day-old mouse pups (6 days after light exposure) was greater than 7.5 μmol/kg BW. In addition, the “LD50 (50% lethal dose), exposed to light” value in the series with 3-day-old mouse pups (IP, 3-day-old mouse pups) stood at 19.5 µmol/kg. Moreover, in the series on 3-day-old mouse pups (setting [1]), the “aspartate aminotransaminase (AST) levels” value is reported as “increases”, the “body weight after exposure to light” value is “significant weight loss”, the “creatine kinase (CK-MB) levels” value is reported as “increases” and the liver antioxidant capacities entry is “decreases”. The “inhibited HO activity” value in the series with heme oxygenase (HO) (3.75 μmol ZnBG/kg BW) was “up to 75%”. The “doses retaining maximal HO inhibitory potency without photosensitizing effects” value with heme oxygenase (HO) (FIG. 3) was less than 3.75 μmol/kg BW.

For the origin of these results see patent US20150224202A1, “FORMULATIONS AND USES FOR MICROPARTICLE DELIVERY OF ZINC PROTOPORPHYRINS” (priority 2014, published 2015).
